The text below walks through data of patent US20240034737A1, “Heterocyclic Derivatives as P2X7 Receptor Antagonists” (BREYE THERAPEUTICS APS, priority 2020, published 2024).

The target in experiment [1] is mP2X7 (Mus musculus (Mouse), UniProt Q9Z1M0). The experiment in a line: mP2X7 channel calcium-influx assay (Fluo-8 NW, FLIPR TETRA, Bz-ATP stimulation). The class given is cell-based. The procedure:
(§1) Extracellular binding of Bz-ATP to P2X7 receptor opens the channel and allows Ca^2+ influx into the cells. This Ca^2+ entry was measured in HEK-293 cells stably transfected with P2X7 receptor using Screen Quest™ Fluo-8 No Wash Calcium Assay Kit (AAt Bioquest®, cat. 36316). Once inside the cell, the lipophilic blocking groups of Fluo-8 are cleaved by non-specific cell esterases, resulting in a negatively-charged fluorescent dye that stays inside cells. Its fluorescence increases upon binding to calcium. When HEK-293/P2X7 cells are stimulated with Bz-ATP, Ca^2+ enters the cells and the fluorescence of Fluo-8 NW increases.
(§2) HEK-293 cells stably transfected with P2X7 receptor were seeded overnight in growth medium at 10,000 to 20,000 cells/well in 384-well plate. 24 hours later, the medium was removed, and the cells were pre-loaded at RT for 1 hour with 20 μL/w of Fluo-8 NW. Then 10 μL/w of test compounds and reference antagonist A438079 at 3X-concentration were injected with the […] and the kinetic response over a period of five minutes was monitored.

Experiment [2] has as its target P2X7 receptor (Homo sapiens (Human), UniProt Q99572). The experiment in a line: Human P2X7 channel calcium-influx assay (Fluo-8 NW, FLIPR TETRA, Bz-ATP stimulation). The class given is cell-based. To be noted: HEK-293 cells stably transfected with P2X7 receptor, Low Divalent Cation Assay Buffer, read-out: hP2X7 IC50. The procedure:
as §1, §2

Sequence of mP2X7 (Q9Z1M0 whole entry): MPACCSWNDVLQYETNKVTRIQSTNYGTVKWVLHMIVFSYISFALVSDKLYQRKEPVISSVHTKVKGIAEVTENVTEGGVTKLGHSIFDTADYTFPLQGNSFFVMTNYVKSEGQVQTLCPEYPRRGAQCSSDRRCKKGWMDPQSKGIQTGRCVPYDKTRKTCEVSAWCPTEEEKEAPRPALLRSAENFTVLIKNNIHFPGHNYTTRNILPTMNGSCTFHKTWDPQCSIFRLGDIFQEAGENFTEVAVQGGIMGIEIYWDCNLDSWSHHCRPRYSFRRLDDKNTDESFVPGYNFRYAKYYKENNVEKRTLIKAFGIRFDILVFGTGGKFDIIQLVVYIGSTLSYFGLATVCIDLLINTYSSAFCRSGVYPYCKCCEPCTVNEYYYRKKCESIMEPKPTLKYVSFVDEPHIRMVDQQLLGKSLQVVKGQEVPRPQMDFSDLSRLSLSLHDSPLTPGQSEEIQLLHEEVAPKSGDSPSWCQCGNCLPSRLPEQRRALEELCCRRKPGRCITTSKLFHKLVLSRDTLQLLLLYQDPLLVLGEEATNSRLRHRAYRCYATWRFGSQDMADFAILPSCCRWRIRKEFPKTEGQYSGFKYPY
Sequence of P2X7 receptor (Q99572 whole entry): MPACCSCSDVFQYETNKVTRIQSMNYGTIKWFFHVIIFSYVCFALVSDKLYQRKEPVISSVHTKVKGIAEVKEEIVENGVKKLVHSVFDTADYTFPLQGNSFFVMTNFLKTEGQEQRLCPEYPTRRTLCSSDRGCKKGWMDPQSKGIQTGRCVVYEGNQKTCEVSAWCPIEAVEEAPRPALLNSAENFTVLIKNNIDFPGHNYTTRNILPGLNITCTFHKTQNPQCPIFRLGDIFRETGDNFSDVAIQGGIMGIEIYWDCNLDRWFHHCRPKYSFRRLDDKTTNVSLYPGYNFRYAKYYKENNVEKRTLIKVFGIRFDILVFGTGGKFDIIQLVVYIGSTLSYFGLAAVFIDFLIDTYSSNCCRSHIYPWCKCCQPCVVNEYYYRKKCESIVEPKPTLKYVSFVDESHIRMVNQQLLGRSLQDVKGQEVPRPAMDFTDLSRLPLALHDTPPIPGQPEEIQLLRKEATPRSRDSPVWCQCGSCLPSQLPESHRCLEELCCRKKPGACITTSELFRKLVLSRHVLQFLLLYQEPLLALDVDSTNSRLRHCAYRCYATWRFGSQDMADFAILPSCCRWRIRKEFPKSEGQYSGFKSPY

Turning to `Cc1ccnc(OCC2CCN(C(CNC(=O)c3c(F)cccc3Cl)c3scnc3C(F)F)CC2)c1` (centres unmarked) [Example 89, 2-Chloro-N-{2-[4-(difluoromethyl)-1,3-thiazol-5-yl]-2-(4-{[(4-methylpyridin-2-yl)oxy]methyl}piperidin-1-yl)ethyl}-6-fluorobenzamide], the results for the IC50 in experiment [1] and in experiment [2] were 24.1 nM and 29.2 nM, respectively.

In the case of `O=C(NCC(c1scnc1C(F)F)N1CCC(Oc2nccc3ncccc23)CC1)c1c(F)cccc1Cl` (centres unmarked) [Example 49, 2-Chloro-N-{2-[4-(difluoromethyl)-1,3-thiazol-5-yl]-2-[4-(1,6-naphthyridin-5-yloxy)piperidin-1-yl]ethyl}-6-fluorobenzamide], the IC50 (commonly the concentration that gives 50% inhibition) in experiment [1] came to 19.5 nM; in experiment [2] it was 19.4 nM.

Take `O=C(NCC(c1scnc1C(F)F)N1CCC(COc2cncc3nncn23)CC1)c1c(F)cccc1Cl` (centres unmarked) [Example 118, 2-Chloro-N-{2-[4-(difluoromethyl)-1,3-thiazol-5-yl]-2-[4-({[1,2,4]triazolo[4,3-a]pyrazin-5-yloxy}methyl)piperidin-1-yl]ethyl}-6-fluorobenzamide]: the figures for the IC50 in experiment [1] and in experiment [2] were 256 nM and 214 nM, respectively.

`N#Cc1cccnc1OC1CCN(C(CNC(=O)c2c(F)cccc2Cl)c2scnc2C(F)F)CC1` (centres unmarked) [Example 36, 2-Chloro-N-(2-{4-[(3-cyanopyridin-2-yl)oxy]piperidin-1-yl}-2-[4-(difluoromethyl)-1,3-thiazol-5-yl]ethyl)-6-fluorobenzamide]: the IC50 in experiment [1] turned out to be 126 nM; in experiment [2] it was 53.8 nM.

For the compound `COc1ccnc(OC2CCN(C(CNC(=O)c3c(F)cccc3Cl)c3scnc3C(F)F)CC2)n1` (centres unmarked) [Example 64, 2-Chloro-N-{2-[4-(difluoromethyl)-1,3-thiazol-5-yl]-2-{4-[(4-methoxypyrimidin-2-yl)oxy]piperidin-1-yl}ethyl}-6-fluorobenzamide], the IC50 amounted to 209 nM in experiment [1] and 65.8 nM in experiment [2].

Turning to `Cc1cnc(OC2CCN(C(CNC(=O)c3c(F)cccc3Cl)c3scnc3C(F)F)CC2)nc1` (centres unmarked) [Example 28, 2-Chloro-N-{2-[4-(difluoromethyl)-1,3-thiazol-5-yl]-2-{4-[(5-methylpyrimidin-2-yl)oxy]piperidin-1-yl}ethyl}-6-fluorobenzamide], the IC50 came to 206 nM in experiment [1] and 64.4 nM in experiment [2].

On to `O=C(NCC(c1scnc1C(F)F)N1CCC(Oc2nccnc2F)CC1)c1c(F)cccc1Cl` (centres unmarked) [Example 34, 2-Chloro-N-{2-[4-(difluoromethyl)-1,3-thiazol-5-yl]-2-{4-[(3-fluoropyrazin-2-yl)oxy]piperidin-1-yl}ethyl}-6-fluorobenzamide], for which the IC50 amounted to 174 nM in experiment [1] and 55.5 nM in experiment [2].

Take `O=C(NCC(c1scnc1C(F)F)N1CCC(Oc2nccs2)CC1)c1c(F)cccc1Cl` (centres unmarked) [Example 10, 2-chloro-N-{2-[4-(difluoromethyl)-1,3-thiazol-5-yl]-2-[4-(1,3-thiazol-2-yloxy)piperidin-1-yl]ethyl}-6-fluorobenzamide]: the IC50 in experiment [1] was determined as 191 nM; in experiment [2] it was 23.5 nM.

On to `Cc1cc(OC2CCN(C(CNC(=O)c3c(F)cccc3Cl)c3scnc3C(F)F)CC2)nc(F)n1` (centres unmarked) [Example 54, 2-Chloro-N-{2-[4-(difluoromethyl)-1,3-thiazol-5-yl]-2-{4-[(2-fluoro-6-methylpyrimidin-4-yl)oxy]piperidin-1-yl}ethyl}-6-fluorobenzamide], for which the IC50 in experiment [1] was 52.9 nM; in experiment [2], 22.8 nM.

On to `O=C(NCC(c1scnc1C(F)F)N1CCC(Oc2nccn3nccc23)CC1)c1c(F)cccc1Cl` (centres unmarked) [Example 44, 2-Chloro-N-{2-[4-(difluoromethyl)-1,3-thiazol-5-yl]-2-(4-{pyrazolo[1,5-a]pyrazin-4-yloxy}piperidin-1-yl)ethyl}-6-fluorobenzamide], for which the IC50 in experiment [1] came to 30.6 nM; in experiment [2] it was 27.9 nM.

`N#Cc1cccc(OCC2CCN(C(CNC(=O)c3c(F)cccc3Cl)c3scnc3C(F)F)CC2)n1` (centres unmarked) [Example 109, 2-Chloro-N-[2-(4-{[(6-cyanopyridin-2-yl)oxy]methyl}piperidin-1-yl)-2-[4-(difluoromethyl)-1,3-thiazol-5-yl]ethyl]-6-fluorobenzamide]: the IC50 in experiment [1] came to 19.2 nM; in experiment [2], 24.9 nM.

With `Cc1nnc2c(OC3CCN(C(CNC(=O)c4c(F)cccc4Cl)c4scnc4C(F)F)CC3)nccn12` (centres unmarked) [Example 52, 2-Chloro-N-{2-[4-(difluoromethyl)-1,3-thiazol-5-yl]-2-[4-({3-methyl-[1,2,4]triazolo[4,3-a]pyrazin-8-yl}oxy)piperidin-1-yl]ethyl}-6-fluorobenzamide], the IC50 in experiment [1] turned out to be 571 nM; in experiment [2], 274 nM.

For the compound `N#Cc1ncccc1OCC1CCN(C(CNC(=O)c2c(F)cccc2Cl)c2scnc2C(F)F)CC1` (centres unmarked) [Example 90, 2-Chloro-N-[2-(4-{[(2-cyanopyridin-3-yl)oxy]methyl}piperidin-1-yl)-2-[4-(difluoromethyl)-1,3-thiazol-5-yl]ethyl]-6-fluorobenzamide], the IC50 was 25.7 nM in experiment [1] and 20 nM in experiment [2].

Take `O=C(NCC(c1scnc1C(F)F)N1CCC(Oc2cncc(-n3cccn3)n2)CC1)c1c(F)cccc1Cl` (centres unmarked) [Example 58, 2-Chloro-N-{2-[4-(difluoromethyl)-1,3-thiazol-5-yl]-2-(4-{[6-(1H-pyrazol-1-yl)pyrazin-2-yl]oxy}piperidin-1-yl)ethyl}-6-fluorobenzamide]: the IC50 in experiment [1] was 11.5 nM; in experiment [2], 27.4 nM.

For `O=C(NCC(c1scnc1C(F)F)N1CCC(COc2nccc(C(F)(F)F)n2)CC1)c1c(F)cccc1Cl` (centres unmarked) [Example 114, 2-Chloro-N-{2-[4-(difluoromethyl)-1,3-thiazol-5-yl]-2-[4-({[4-(trifluoromethyl)pyrimidin-2-yl]oxy}methyl)piperidin-1-yl]ethyl}-6-fluorobenzamide], the IC50 turned out to be 37.2 nM in experiment [1] and 50.7 nM in experiment [2].

In the case of `COc1nccc(OC2CCN(C(CNC(=O)c3c(F)cccc3Cl)c3scnc3C(F)F)CC2)n1` (centres unmarked) [Example 63, 2-Chloro-N-{2-[4-(difluoromethyl)-1,3-thiazol-5-yl]-2-{4-[(2-methoxypyrimidin-4-yl)oxy]piperidin-1-yl}ethyl}-6-fluorobenzamide], the results for the IC50 in experiment [1] and in experiment [2] were 49.3 nM and 41.2 nM, respectively.

As to `O=C(NCC(c1scnc1C(F)F)N1CCC(Oc2nccc(C(F)(F)F)n2)CC1)c1c(F)cccc1Cl` (centres unmarked) [Example 42, 2-Chloro-N-{2-[4-(difluoromethyl)-1,3-thiazol-5-yl]-2-(4-{[4-(trifluoromethyl)pyrimidin-2-yl]oxy}piperidin-1-yl)ethyl}-6-fluorobenzamide], the IC50 in experiment [1] stood at 108 nM; in experiment [2], 60.8 nM.

In the case of `O=C(NCC(c1scnc1C(F)F)N1CCC(COc2ncccc2Cl)CC1)c1c(F)cccc1Cl` (centres unmarked) [Example 120, 2-Chloro-N-[2-(4-{[(3-chloropyridin-2-yl)oxy]methyl}piperidin-1-yl)-2-[4-(difluoromethyl)-1,3-thiazol-5-yl]ethyl]-6-fluorobenzamide], the IC50 amounted to 16.4 nM in experiment [1] and 32.5 nM in experiment [2].

For `N#Cc1cnccc1OCC1CCN(C(CNC(=O)c2c(F)cccc2Cl)c2scnc2C(F)F)CC1` (centres unmarked) [Example 122, 2-Chloro-N-[2-(4-{[(3-cyanopyridin-4-yl)oxy]methyl}piperidin-1-yl)-2-[4-(difluoromethyl)-1,3-thiazol-5-yl]ethyl]-6-fluorobenzamide], the results for the IC50 in experiment [1] and in experiment [2] were 44.2 nM and 39.6 nM, respectively.
